Assay: Pharmacokinetic study in beagle dog plasma (LC-MS/MS) after intragastric administration of tall Gastrodia capsules
Protocol: After full validation, the LC-ESI-MS/MS method was used to analyze large batches of beagle dog plasma. […] The corresponding pharmacokinetic parameters were generated by fitting plasma concentration profiles to a non-compartmental model. These are summarized in Table 3, expressed as the mean ± SD (n = 5).
Quantitative analysis was conducted on a 1290 UPLC-photodiode array 6460 triple quadrupole mass spectrometry system (LC-MS/MS, Agilent Technologies, Palo Alto, CA, USA). Analysis was carried out on. Separation of analytes was performed on a reversed phase Agilent Zorbax XDB-C18 HPLC column (2.1 mm × 50 mm, particle size 3.5 μm) with the column oven set to 30 °C. The elution gradient was carried out with a binary solvent system consisting of an aqueous solution of 0.4% v/v formic acid in water (A) and acetonitrile (B) at a flow rate of 0.15 mL/min. Optimized separation was obtained according to a linear gradient (0–2 min, 2% B; 2–4 min, 2–12% B; 4–8 min, 12–20% B; 8–14 min, 20–28% B; […], 28–90% B). MS/MS conditions were as follows: negative ion mode, drying gas (N2) flow rate 8.0 L/min, drying gas temperature 300 °C, declustering potential 150 V, nebulizer pressure 45 psi, ESI Vcap 3500 V, sheath gas temperature 300 °C, sheath gas flow 12 L/min, nozzle voltage 500 V. The mass transition of gastrodin (m/z 331.1→123.0, CE: 3 eV), parishin (m/z 995.4→727.0, CE: 42 eV), parishin B (m/z 727.3→423.0, CE: 20 eV), parishin C (m/z 727.3→423.1, CE: 20 eV), parishin E (m/z 459.3→110.9, CE: 19 eV) and bergenin (m/z 327.0→234.0, CE: 4 eV).
Adult male […] beagle dogs (12 kg ± 0.020 kg) were purchased from Beijing Shahe Bio-Technology (Beijing, China; certificate No. SCXK2014-0007). Before drug administration, the dogs were fasted for 12 h with free access to water. They were maintained on a 12 h light-dark cycle (light on from 6:00 to 18:00 h) at ambient temperature (22–24 °C) with 60% relative humidity. The animals were observed twice daily and body weights were recorded once per day to assess their general health. All experimental protocols on animals were carried out according to the Guidelines of the Committee on the Care and Use of Laboratory Animals of China.
Fifteen beagle dogs were randomly divided into three groups to receive an intragastric dose of tall Gastrodia capsules (0.125, 0.25 and 0.5 g/kg). Capsules were ultrasonically dissolved in pure water and suspended at concentrations of 5, 10 and 20 mg/mL for intragastric administration. […] The HPLC quantitative analysis was based on the previous report with some modification. After administration, serial blood samples (about 2.00 mL) were collected from the foreleg vein […] into heparin-containing capillary tubes at 10, 20, 30, 45, 60, 120, 180, 240, 480, 720 and 1440 min. Blood samples were promptly centrifuged at 5000 rpm for 5 min, and the plasma was separated and stored at −20 °C until analysis.
Plasma samples were thawed to 4 °C before processing. An aliquot of 200 μL of the plasma sample was transferred into an Eppendorf tube, and 1000 μL of ice-cold 1% formic acid methanol containing IS (10 μL, 2.0 μg/mL) was added to precipitate the plasma proteins. Samples were then vortexed for 3 min and centrifuged at 12,000 rpm for 10 min. The supernatant was transferred and evaporated to dryness under a gentle stream of nitrogen at 40 °C. The residue was reconstituted in 200 μL of 5.0% methanol–water, and a 10 μL aliquot was injected for analysis.

[1] = male, beagle, dog, in vivo, po, 0.125 g/kg
[2] = male, beagle, dog, in vivo, po, 0.25 g/kg
[3] = male, beagle, dog, in vivo, po, 0.5 g/kg

| Compound | AUC(0-inf) [1] [ng·h/mL] | AUC(0-t) [1] [ng·h/mL] | Cmax [1] [ng/mL] | MRT inf [1] [h] | MRT last [1] [h] | Tmax [1] [h] | half-life [1] [h] | AUC(0-inf) [2] [ng·h/mL] | AUC(0-t) [2] [ng·h/mL] | Cmax [2] [ng/mL] | MRT inf [2] [h] | MRT last [2] [h] | Tmax [2] [h] | half-life [2] [h] | AUC(0-inf) [3] [ng·h/mL] | AUC(0-t) [3] [ng·h/mL] | Cmax [3] [ng/mL] | MRT inf [3] [h] | MRT last [3] [h] | Tmax [3] [h] | further results |
| --- | --- | --- | --- | --- | --- | --- | --- | --- | --- | --- | --- | --- | --- | --- | --- | --- | --- | --- | --- | --- | --- |
| OCc1ccc(O[C@@H]2O[C@H](CO)[C@@H](O)[C@H](O)[C@H]2O)cc1 [Gastrodin, gastrodin] | 5080 ± 2110 | 4890 ± 2060 | 1200 ± 120 | 3.33 ± 1.09 | 2.98 ± 1.01 | 1.1 ± 0.52 | 1.86 ± 0.67 | 9170 ± 1790 | 8830 ± 1860 | 2050 ± 495 | 3.8 ± 0.28 | 3.46 ± 0.29 | 1.75 ± 0.9 | 1.9 ± 0.26 | 17600 | 17000 | 3760 ± 778 | 3.93 ± 0.99 | 3.54 ± 0.69 | 2 ± 0.71 | Time after administration at which detected in plasma (beagle dog plasma, intragastric capsules, all three dosage levels): 10 min; CL (plasma clearance) (beagle dog plasma, intragastric tall Gastrodia capsules, high dose 0.5 g/kg, mean ± SD, n = 5): 3.5 ± 0.83 mL/min/kg; CL (plasma clearance) (beagle dog plasma, intragastric tall Gastrodia capsules, low dose 0.125 g/kg, mean ± SD, n = 5): 3.5 ± 2.17 mL/min/kg; CL (plasma clearance) (beagle dog plasma, intragastric tall Gastrodia capsules, medium dose 0.25 g/kg, mean ± SD, n = 5): 3.33 ± 0.67 mL/min/kg; Mean plasma clearance (CL) (beagle dogs, mean over the three intragastric dose levels of tall Gastrodia capsules): 3.3 mL/min/kg; half-life [3]: 2.09 ± 0.68 h |
| O=C(O)CC(O)(CC(=O)OCc1ccc(OC2OC(CO)C(O)C(O)C2O)cc1)C(=O)OCc1ccc(OC2OC(CO)C(O)C(O)C2O)cc1 (centres unmarked) [Parishin B, parishin B] | 1570 ± 533 | 1550 ± 530 | 526 ± 143 | 2.32 ± 0.25 | 2.25 ± 0.26 | 1.25 ± 0.69 | 1.08 ± 0.11 | 2720 ± 1140 | 2700 ± 1130 | 746 ± 320 | 2.84 ± 0.44 | 2.78 ± 0.42 | 1.8 ± 0.45 | 1.18 ± 0.29 | 4720 ± 2330 | 4700 ± 2330 | 1220 ± 562 | 2.8 ± 0.42 | 2.76 ± 0.44 | 2 ± 0.71 | Mean plasma clearance (CL) (male, beagle, dog, in vivo, po): 14.5 mL/min/kg; CL (plasma clearance) [1]: 12 ± 6.5 mL/min/kg; CL (plasma clearance) [2]: 13 ± 3.83 mL/min/kg; CL (plasma clearance) [3]: 18.5 ± 14 mL/min/kg; half-life [3]: 1.17 ± 0.22 h |
| O=C(CC(O)(CC(=O)OCc1ccc(O[C@@H]2O[C@H](CO)[C@@H](O)[C@H](O)[C@H]2O)cc1)C(=O)O)OCc1ccc(O[C@@H]2O[C@H](CO)[C@@H](O)[C@H](O)[C@H]2O)cc1 [Parishin C, parishin C] | 359 ± 99.3 | 349 ± 100 | 107 ± 29.4 | 2.7 ± 0.28 | 2.47 ± 0.28 | 1.35 ± 0.6 | 1.37 ± 0.18 | 578 ± 200 | 567 ± 198 | 144 ± 55.1 | 3.31 ± 0.59 | 3.14 ± 0.54 | 2 ± 0.71 | 1.56 ± 0.41 | 1100 ± 527 | 1090 ± 523 | 243 ± 99.6 | 3.25 ± 0.72 | 3.18 ± 0.69 | 2.4 ± 0.55 | Mean plasma clearance (CL) (male, beagle, dog, in vivo, po): 16 mL/min/kg; CL (plasma clearance) [1]: 12 ± 3.83 mL/min/kg; CL (plasma clearance) [2]: 15.2 ± 3.83 mL/min/kg; CL (plasma clearance) [3]: 21 ± 17.5 mL/min/kg; half-life [3]: 1.29 ± 0.36 h |
| O=C(CC(O)(CC(=O)OCc1ccc(OC2OC(CO)C(O)C(O)C2O)cc1)C(=O)OCc1ccc(OC2OC(CO)C(O)C(O)C2O)cc1)OCc1ccc(OC2OC(CO)C(O)C(O)C2O)cc1 (centres unmarked) [Parishin, parishin] | 899 ± 299 | 868 ± 314 | 388 ± 116 | 2 ± 0.3 | 1.8 ± 0.42 | 1 ± 0.56 | 1.15 ± 0.18 | 1520 ± 832 | 1500 ± 836 | 462 ± 230 | 2.65 ± 0.44 | 2.49 ± 0.4 | 1.55 ± 0.62 | 1.38 ± 0.34 | 3280 ± 1370 | 3270 ± 1370 | 969 ± 292 | 2.5 ± 0.35 | 2.48 ± 0.36 | 1.45 ± 0.76 | Mean plasma clearance (CL) (male, beagle, dog, in vivo, po): 52.3 mL/min/kg; CL (plasma clearance) [1]: 44.8 ± 16.8 mL/min/kg; CL (plasma clearance) [2]: 59.3 ± 29.2 mL/min/kg; CL (plasma clearance) [3]: 53 ± 27.5 mL/min/kg; half-life [3]: 1.05 ± 0.16 h |
